These results are taken from patent US12422427B2, “Compounds for treatment of diseases and methods of screening therefor” (Max-Planck-Gesellschaft zur Förderung der Wissenschaften …, priority 2018, dated 2025).

Entries after “also recorded” stand apart in the source; their conditions may differ.

Series [1] relates to liquid-like non-membrane bound compartments. The following applies: cited from earlier work.
Series [2] deals with EWSR1, TIAL1, PABPC1, G3BP1. In words: Panel of HeLa lines expressing GFP-labelled stress granule proteins, arsenate stress. In kind it is cell-based. The following applies: 1 mM arsenate, 10 μM compound. The protocol: It was anticipated that a useful therapeutic would prevent all PLD-containing stress granule proteins from localising to stress granules. The inventors used 1 mM arsenate to stress a panel of HeLa cell lines expressing GFP fusions of stress granule proteins (EWSR1, TIAL1, PABPC1, G3BP1) with either no treatment or 10 μM lipoic acid or lipoamide.
Compound effects were assessed under a variety of conditions in HeLa or iPS cells expressing wild-type or P525L FUS GFP by live cell imaging. Different combinations of 1 h pre-treatment compound or pre-stress with arsenate followed by 1 h treatment with compound and/or stress with arsenate. Unless otherwise indicated, cells were pre-treated for 1 h using 10 μM compound from 10 mM stock in DMSO (or an equal volume of DMSO control) then stressed for 1 h with 1 mM potassium arsenate still in the presence of compound. GFP fluorescence was imaged by widefield epifluorescence using an inverted Olympus IX71 microscope with an Olympus 100× NA 1.4 Plan Apo oil immersion objective and a CoolSNAP HQ CCD camera (Photometrics), using a DeltaVision climate control unit (37° C., 5% CO2) (Applied Precision). The kinetics of pre-stress followed by treatment was analysed from images captured at 2 min intervals for 100 min, for single time points images were captured after 1 h unless otherwise indicated.

The subject of series [3] is HeLa cells expressing FUS GFP. The series can be described thus: Stress granule formation in HeLa FUS GFP cells under different stresses. The format is cell-based. The following applies: 10 μM; mitochondrial (rotenone), hyperosmotic (sorbitol) or arsenate stress. As to the method:
The stressor, arsenate, will react with the thiol groups of lipoamide. Therefore, to exclude the possibility that lipoamide is acting only by removing the stressor, so it was further tested whether lipoic acid can prevent stress granule formation triggered by other stresses than arsenate (an oxidative) stress: Mitochondrial electron transport chain inhibition (rotenone), heat stress (42° C.), hyperosmotic stress (sorbitol, a non-metabolisable sugar), glycolysis inhibition ([…] in the absence of glucose) or serum starvation.
Various cellular stresses were achieved by replacing 1 h 1 mM potassium arsenate treatment with other conditions: 100 μM rotenone (R8875, Sigma Aldrich) from a 1 M stock in DMSO for 2 h (mitochondrial stress). […] Sorbitol (S1876, Sigma Aldrich) from a 4 M stock in H2O for 1 h (osmotic stress). 42° C. in normal growth medium for 30 m (heat stress). […] Appropriate solvent controls were used.

The next series relates to PAB-1. The series can be described thus: Protein aggregation in C. elegans: PAB-1. Conditions: liquid culture from L4, scored day 2 of adulthood. In kind it is in vivo, Caenorhabditis elegans. As to the method: The effect of lipoic acid on stress granule protein aggregation in vivo was analysed using a C. elegans model for stress granule formation and aggregation. As previously described, fluorescent-tagged PAB-1 forms abundant stress granules and large solid aggregates during aging or upon chronic stress. RHO-1 and KIN-19 also aggregate during aging, but are not RNA binding or stress granule proteins. Three lines were used: Fluorescently tagged PAB-1 (DCD214: N2; uqIs24[pmyo-2::tagrfp::pab 1gene]), KIN-19 (CF3649: N2; muIs 209[pmyo-3::kin-19::tagrfp+ptph-1::GFP] and RHO-1 (DCD13: N2; uqIs9 [pmyo-2::rho-1::tagr fp+ptph-1::gfp]). Each were analysed as below, except DCD13 were maintained at 20° C.
The animals were exposed to lipoic acid in liquid culture in a 96 well plate starting from larval stage L4 in a total volume of 50 μl S-Complete per well (100 mM NaCl, 50 mM Potassium phosphate pH 6, 10 mM potassium citrate, 3 mM MgSO4, 3 mM CaCl2), 5 μg/mL cholesterol, 50 μM ethylenediaminetetraacetic acid (EDTA), 25 μM FeSO4, 10 μM MnCl2, 10 μM ZnSO4, 1 μM CuSO4) supplemented with heat-killed OP50 and 50 μg/ml carbenicillin. […] Toxicity was evaluated from the number of dead or aberrantly small-sized animals.
48 h after switching the L4s from 20° C. to 25° C. […] After immobilization with 2 mM levamisole aggregation was scored using a fluorescent stereo microscope (Leica M165 FC, Plan Apo 2.0× objective). […]

The test system of series [4] is HeLa cells expressing FUS GFP. The series can be described thus: HeLa cell compound dose responses (FUS GFP, arsenate stress). The format is cell-based. Conditions: 1 h 1 mM arsenate stress. As to the method:
Small dilution steps rather than concentration replicates were selected as it provides greater statistical power from a set number of samples. Final DMSO concentration was 0.08% in all samples, and each plate included at least 12 control wells with 0.08% DMSO. Cytoplasmic FUS droplet number and nuclear/cytoplasm partition of FUS were analysed using custom macros in ImageJ. Nuclei were identified by intensity thresholding of the blue fluorescence image following a 5 px Gaussian blur. Cytoplasmic FUS droplets by intensity thresholding of the green image following a 10 px weight 0.9 unsharp filter masked by the thresholded nuclei, and nuclear FUS droplets by intensity thresholding of the green image following a 5 px weight 0.9 unsharp filter and 10 px rolling ball background subtraction masked to only include thresholded nuclei. The ratio of cytoplasmic FUS drops to nuclei was taken as cytoplasmic FUS droplets per cell per field of view, and p, the ratio of partition of FUS to the nucleus and the cytoplasm, was derived from a=Vn/vt, the ratio of nuclear to total green signal per field of view, where p=a/(1−a). […] Six fields of view were captured and analysed per condition.

In the case of `OCCCCCCO` [1,6-hexanediol], in series [1], the “concentrations required for in vitro or cellular activity” value was 1-10% and the “toxicity at active concentrations” value is reported as “rapidly toxic”.

With `O=C(O)CCCC[C@@H]1CCSS1` [R-(+)-lipoic acid], the “localisation of EWSR1, TIAL1, PABPC1, G3BP1 GFP to stress granules” value in series [2] was “localised to stress granules in the absence of treatment, and not in the presence”. In addition, in series [3], the stress granule formation result is “reduced stress granule formation”. In addition, the “proportion of animals with aggregation of PAB-1” value in the series on PAB-1 is “dose-dependent decrease; also recorded: strong dose-dependent reduction”. Also, the “EC50 reducing stress granule number, compared among compounds” value in series [4] is reported as “comparable EC50”.

In the case of S-(−)-lipoic acid, in series [2], the “localisation of EWSR1, TIAL1, PABPC1, G3BP1 GFP to stress granules” value was “localised to stress granules in the absence of treatment, and not in the presence”. Further, the stress granule formation entry in series [3] is reported as “reduced stress granule formation”. For the same molecule, in the series with PAB-1, the “proportion of animals with aggregation of PAB-1” value is on record as “dose-dependent decrease; also recorded: strong dose-dependent reduction”. Moreover, the “EC50 reducing stress granule number, compared among compounds” value in series [4] is “comparable EC50; also recorded: very similar activity”.
